pKi: −log10 of the molar value.
target: CDK2 (human) (UniProt P24941); test: Enzyme Assay

SMILES | pKi
COc1ccc(Nc2nccc(-c3sc(=O)n(C)c3C)n2)cc1 | 6.15
CCOc1ccccc1Nc1nccc(-c2sc(=O)n(C)c2C)n1 | < 5.00
Cc1c(-c2ccnc(Nc3ccccc3C(F)(F)F)n2)sc(=O)n1C | < 5.00
COc1cc(Cl)ccc1Nc1nccc(-c2sc(=O)n(C)c2C)n1 | 5.65
COc1ccc(Nc2nccc(-c3sc(=O)n(C)c3C)n2)c(OC)c1 | < 5.00
COc1ccccc1Nc1nccc(-c2sc(=O)n(C)c2C)n1 | 5.61
Cc1c(-c2ccnc(Nc3ccccc3OC(F)F)n2)sc(=O)n1C | 5.27
CCc1ccccc1Nc1nccc(-c2sc(=O)n(C)c2C)n1 | 5.91

These reach a higher pKi. Values come first.

pKi | SMILES
6.31 | Cc1cc(F)ccc1Nc1nccc(-c2sc(=O)n(C)c2C)n1
6.34 | Cc1ccccc1Nc1nccc(-c2sc(=O)n(C)c2C)n1
6.72 | Cc1c(Nc2nccc(-c3sc(=O)n(C)c3C)n2)cccc1NS(C)(=O)=O
7.15 | COc1cccc(Nc2nccc(-c3sc(=O)n(C)c3C)n2)c1
7.30 | CCc1ccc(Nc2nccc(-c3sc(=O)n(C)c3C)n2)cc1
7.40 | Cc1c(-c2ccnc(Nc3ccccc3)n2)sc(=O)n1C
7.40 | Cc1ccc(Nc2nccc(-c3sc(=O)n(C)c3C)n2)cc1
7.52 | Cc1c(-c2ccnc(Nc3cccc(NS(C)(=O)=O)c3)n2)sc(=O)n1C
7.70 | Cc1cccc(Nc2nccc(-c3sc(=O)n(C)c3C)n2)c1
7.70 | CC(=O)c1cccc(Nc2nccc(-c3sc(=O)n(C)c3C)n2)c1

From the Kinase Knowledgebase extract (Sharma et al. 2016)
